# Data from US20050020542A1, “Method of modulating sodium ion absorption in epithelial cells” (priority 2001, published 2005).
# Entries after “also recorded” stand apart in the source; their conditions may differ. Read-outs that look alike come from different tables or passages of the source.
# Biological target: T1, epithelial sodium channel (ENaC) (Homo sapiens, UniProt P37088+P51168+P51170)
# T1 construct: Nasal Polyps were surgically obtained from a CF patient; endogenous in cells; host or cells: primary cystic fibrosis human nasal epithelial (CFHNE) cells from nasal polyps of a CF patient, grown at air-liquid interface
# T1 sequence (P37088 1-669): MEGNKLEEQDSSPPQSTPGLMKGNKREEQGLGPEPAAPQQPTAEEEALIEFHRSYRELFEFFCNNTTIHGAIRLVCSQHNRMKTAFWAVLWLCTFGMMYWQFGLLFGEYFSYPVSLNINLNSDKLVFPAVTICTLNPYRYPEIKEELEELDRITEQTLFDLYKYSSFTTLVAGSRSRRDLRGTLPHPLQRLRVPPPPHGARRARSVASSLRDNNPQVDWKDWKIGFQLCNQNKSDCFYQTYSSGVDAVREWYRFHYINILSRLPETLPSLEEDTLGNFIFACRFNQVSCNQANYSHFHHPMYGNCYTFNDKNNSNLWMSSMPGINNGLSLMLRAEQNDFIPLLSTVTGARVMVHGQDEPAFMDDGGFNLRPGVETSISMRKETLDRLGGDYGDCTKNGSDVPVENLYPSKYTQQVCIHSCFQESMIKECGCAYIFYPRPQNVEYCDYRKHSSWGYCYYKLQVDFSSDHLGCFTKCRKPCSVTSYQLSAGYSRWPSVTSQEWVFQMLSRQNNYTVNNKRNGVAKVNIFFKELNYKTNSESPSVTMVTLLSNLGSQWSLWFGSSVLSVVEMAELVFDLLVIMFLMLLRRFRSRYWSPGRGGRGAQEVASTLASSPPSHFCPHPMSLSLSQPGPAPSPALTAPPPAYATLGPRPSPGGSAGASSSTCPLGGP
# T1 sequence (P51168 1-640): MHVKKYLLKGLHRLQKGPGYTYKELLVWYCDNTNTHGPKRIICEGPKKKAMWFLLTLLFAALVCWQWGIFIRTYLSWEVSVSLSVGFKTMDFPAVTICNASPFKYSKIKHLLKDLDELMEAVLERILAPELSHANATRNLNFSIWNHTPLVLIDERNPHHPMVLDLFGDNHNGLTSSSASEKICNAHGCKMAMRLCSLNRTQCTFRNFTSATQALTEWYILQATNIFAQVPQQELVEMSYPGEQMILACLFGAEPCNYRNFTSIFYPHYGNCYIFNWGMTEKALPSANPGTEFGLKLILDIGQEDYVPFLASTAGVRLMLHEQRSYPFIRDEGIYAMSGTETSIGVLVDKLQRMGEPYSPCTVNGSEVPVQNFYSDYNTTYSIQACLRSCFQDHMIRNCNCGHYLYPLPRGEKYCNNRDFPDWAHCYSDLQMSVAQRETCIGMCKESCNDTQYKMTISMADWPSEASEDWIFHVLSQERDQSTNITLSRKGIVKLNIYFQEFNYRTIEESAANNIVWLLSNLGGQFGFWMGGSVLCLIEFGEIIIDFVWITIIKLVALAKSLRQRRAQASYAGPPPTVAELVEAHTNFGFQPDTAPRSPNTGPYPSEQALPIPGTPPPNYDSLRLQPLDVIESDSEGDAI
# T1 sequence (P51170 1-649): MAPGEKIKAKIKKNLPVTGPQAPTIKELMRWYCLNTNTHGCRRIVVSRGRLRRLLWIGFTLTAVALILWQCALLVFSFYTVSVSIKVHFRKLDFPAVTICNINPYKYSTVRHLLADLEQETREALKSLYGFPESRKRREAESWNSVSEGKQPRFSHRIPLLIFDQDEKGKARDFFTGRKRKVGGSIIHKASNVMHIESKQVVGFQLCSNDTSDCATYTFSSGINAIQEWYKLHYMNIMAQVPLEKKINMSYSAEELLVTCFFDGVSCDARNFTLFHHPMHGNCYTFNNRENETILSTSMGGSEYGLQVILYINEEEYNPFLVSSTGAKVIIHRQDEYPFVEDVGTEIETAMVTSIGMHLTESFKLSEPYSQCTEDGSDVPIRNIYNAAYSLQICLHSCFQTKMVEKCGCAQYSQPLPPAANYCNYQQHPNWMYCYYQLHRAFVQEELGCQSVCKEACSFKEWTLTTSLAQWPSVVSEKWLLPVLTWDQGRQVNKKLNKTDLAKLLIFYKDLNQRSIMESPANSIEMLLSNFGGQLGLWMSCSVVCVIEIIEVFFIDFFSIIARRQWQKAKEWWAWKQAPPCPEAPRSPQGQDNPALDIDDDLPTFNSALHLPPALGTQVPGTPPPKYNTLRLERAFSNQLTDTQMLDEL
# Test: Cystic fibrosis human nasal epithelial (CFHNE) cell Ussing chamber assay, short-circuit current (Isc)
# Assay type: cell-based
# Method: Sodium uptake inhibiting and enhancing inositol polyphosphate compounds are determined by the cystic fibrosis human nasal epithelial (CFHNE) cell assay, as described in detail in Examples 1 and 2, i.e., by mounting monolayers of human CF nasal epithelial cells in Ussing chambers, and then monitoring short-circuit current (Isc) and resistance after contact with a test inositol polyphosphate compound.
# Elevated basal Isc measured in monolayer cultures in Ussing Chambers is a prominent characteristic of cultures of CF human nasal airway epithelia that distinguishes it from normal tissue. Although basal Isc is largely driven by sodium channel activity (ENaC) it has been closely associated with both CFTR and Ca^2+ activated Cl^− channels. (Devor and Pilewski, 1999; Inglis et al., 1999; Mall et al., 1999; Ramminger et al., 1999; Wang and Chan, 2000).
# CF Human Nasal Epithelial (CFHNE) Cell Isolation and Proliferation: Nasal Polyps were surgically obtained from a CF patient at Children's Hospital (Seattle, Wash.), transported, on ice in a sterile container containing a 1:1 mixture of Dulbecco's modification of minimum essential medium Eagle and Ham's F-12 nutrient medium (DMEM/F-12)(Irvine Scientific, Santa Ana, Calif.) supplemented with 100 U/ml penicillin, 0.1 mg/ml streptomycin, 10 mM HEPES, and 2 mM L-glutamine. The tissue samples were aseptically removed from the transport medium and washed (repeated 5×) by suspending in 40 ml of Joklik's modification of minimum essential medium Eagle (JMEM) at 4° C., and centrifuging at 500 RPM. The supernatant was aspirated and discarded. The tissue was then transferred to JMEM containing 200 U/ml penicillin, 0.2 mg/ml streptomycin, 0.1 mg/ml gentamycin sulfate (Clonetics, San Diego, Calif.), and 0.1 μg/ml amphotericin-B (Clonetics), and 0.1% Protease (Sigma), washed an additional 2×, suspended in 15 ml in a 10 cm tissue culture dish, and incubated at 4° C. for 24 hours. The tissue samples were then gently triturated, the connective tissue aseptically removed, and the remaining cell suspension centrifuged at 1000 RPM for 5 min. The supernatant was aspirated and the pellet was resuspended in 10 ml JMEM with 0.025% trypsin-EDTA and allowed to incubate for 5 min. After 5 min., 10% Fetal Bovine Serum (FBS) was added to deactivate the trypsin, and the cell suspension was centrifuged at 1000 RPM. The supernatant was aspirated and the cell pellet was resuspended in a proliferation media consisting of Keratinocyte-Serurm Free Medium (KSFM)(Gibco-BRL, Grand Island, N.Y.) containing 5 ng/ml EGF (Gibco), 50 μg/ml BPE (Gibco), 100 U/ml penicillin, 0.1 mg/ml streptomycin, and 2 mM L-glutamine. The cell suspension was transferred to 2, 10 cm tissue culture dishes coated with 1 μg/cm^2 Vitrogen (Becton-Dickinson, Bedford, Mass.), incubated at 37° C. in a humidified atmosphere of 5% CO2 and 95% air. The cells were allowed to grow for 6 days (70-80% confluence) with the media being replaced with fresh media every other day. The cells were then trypsinized using 0.025% trypsin-EDTA for 5 min. The cell suspension was collected, the trypsin deactivated with 10% FBS, and centrifuged at 1000 rpm for 5 min. The cells were then counted using a hemocytometer. There was a typical yield of 3×10^6 cells per dish. The supernatant was aspirated and the cells were resuspended in KSFM and plated on 1 μg/cm^2 Vitrogen at a density of 5×10^3 cells/cm^2.
# CFHNE Cell Ussing Chamber Preparation: The CFHNE cells were prepared for Ussing Chamber studies using Snapwell permeable supports (0.4 μm pore size) (Corning Costar, Cambridge, Mass.) coated with 1 μg/cm^2 Vitrogen. Cells were plated at 10^5 cells/cm^2 in KSFM. […]
smiles,measurement,setting,value
"CCCCCCCCOC1C(OC(=O)CCC)C(OP(=O)(OCOC(=O)CC)OCOC(=O)CC)C(OP(=O)(OCOC(=O)CC)OCOC(=O)CC)C(OP(=O)(OCOC(=O)CC)OCOC(=O)CC)C1OP(=O)(OCOC(=O)CC)OCOC(=O)CC (stereo not drawn) [INO-E2, 2-O-butyryl-1-O-octyl-myo-inositol 3,4,5,6-tetrakisphosphate octakis (propionoxymethyl) ester]",acute effect on Isc,"2.5 μM, acute",acute inhibitory effect on Isc
same,persistence of acute Isc effect after 24 hrs,"2.5 μM, single addition, after 24 hrs",dissipated
same,inhibition of Isc 48 hours after exposure (reversibility),"5 μM for 2 hours, tested 48 hours later",negligible inhibition of Isc
same,effect of repeated exposure on basal Isc,"1-2.5 μM repeatedly over 96 hours (every 24 hrs for 4 days), FIG. 3",corrective changes in basal Isc; also recorded: cumulative beneficial effect; also recorded: reverses the pathologically elevated basal Isc
same,decrease in potency after 24 hr preincubation versus acute addition,24 hr preincubation EC50 vs acute EC50,50-80%
same,inhibition of spontaneous Isc in Cl- free buffer,"Cl- free buffer, FIG. 1A",not reduced
same,EC50,"acute addition, data not shown, read-out: EC50 on Isc following acute addition of compound",1 to 2 µM
same,acute effect on spontaneous amiloride-inhibitable Isc,"acute addition, reduced chloride and chloride free buffers, FIG. 1A",inhibits spontaneous amiloride-inhibitable Isc in a dose-dependent fashion
same,EC50,"applied apically 2 hrs, washed, tested 24 hrs later, CFHNE monolayers, read-out: EC50 of prolonged effect on basal amiloride-inhibitable Isc",5 to 10 µM
